Measurements from patent US4616038A, “Combination of thienamycin-type antibiotics with dipeptidase inhibitors” (Merck & Co., Inc., priority 1985, dated 1986).
Read-outs that look alike come from different tables or passages of the source.

Columns and labels:
[1] = Plasma level of thienamycin class compound in the mouse; type: in vivo; details: po, 10 mg/kg; for concentration at 0.5 h: 30 minutes; for concentration at 1 h: 60 minutes; for concentration at […]: 90 minutes
Method: (§1) An in vivo assay is conducted using 34 Charles River CD female mice. Seventeen of the mice are administered 40 mg/kg of the inhibitor 7-(L-2-amino-2-carboxyethylthio)-2-(2,2-dimethylcyclopropanecarboxamido)-2-heptenoic acid subcutaneously, and an additional 40 mg/kg per os. Immediately thereafter they and an additional 17 mice are administered 10 mg/kg of the thienamycin class compoud (±)-[5R,6S]-2-ethylthio-6[(R)-1-hydroxyethyl]-pen-2-em-3-sodiocarboxylate by oral gavage. The level of the latter compound in plasma is tested at 10, 30, 60 and 90 minutes using 3 mice from each group at each time period.

[2] = Urinary recovery of thienamycin class compound in the mouse; type: in vivo; details: urine, po, 10 mg/kg; for dose excreted: Total
Method: as §1
The remaining 5 mice from each group are tested for urinary recovery of the thienamycin class compound with the following results.

[3] = target: T1, renal dipeptidase (E.C.3.4.13.11) (Sus scrofa, UniProt P22412); assay: Inhibition of glycyldehydrophenylalanine (GDP) hydrolysis by renal dipeptidase in vitro; type: biochemical, pig (hog)
T1 construct: solubilized preparation of dipeptidase isolated from hog kidneys; from tissue; host or cells: hog kidney
T1 sequence (P22412 17-409): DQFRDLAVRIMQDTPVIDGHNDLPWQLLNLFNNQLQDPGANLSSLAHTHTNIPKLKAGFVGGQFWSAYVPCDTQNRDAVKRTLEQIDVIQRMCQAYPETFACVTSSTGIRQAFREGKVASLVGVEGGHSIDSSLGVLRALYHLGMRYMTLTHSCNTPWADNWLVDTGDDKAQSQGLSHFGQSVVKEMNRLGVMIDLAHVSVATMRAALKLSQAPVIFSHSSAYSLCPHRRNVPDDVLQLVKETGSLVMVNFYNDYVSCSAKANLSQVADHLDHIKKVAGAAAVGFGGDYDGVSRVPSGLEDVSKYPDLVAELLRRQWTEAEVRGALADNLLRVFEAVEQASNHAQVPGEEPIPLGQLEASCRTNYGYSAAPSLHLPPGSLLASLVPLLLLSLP
Method: This measured the ability of compounds to inhibit hydrolysis of glycyldehydrophenylalanine (GDP) by a solubilized preparation of dipeptidase isolated from hog kidneys The procedure is as follows to a 1 ml. system containing 50 mM "MOPS" (3-(N-morpholino)propanesulfonic acid) buffer, pH 7.1, is added 5 μg of lyophilized enzyme, and the test compound at a final concentration of 0.1 mM. After a five minute incubation at 37° C., GDP is added to a final concentration of 0.05 mM. Incubation is continued for 10 minutes, at 37° C. and hydrolysis of GDP is measured by the change in optical density with time at 275 nm. Inhibition of the enzyme is gauged by comparison to a standard run containing no inhibitor and is expressed as the inhibitor binding constant, Ki.
A 1 ml. system of 50 mM "MOPS" buffer, pH 7.1, is used. To this is added 5 μg of the pig renal enzyme and an amount of the test compound to bring its final concentration to 0.1 mM. After a five minute incubation at 37° C., an amount of GDP is added to bring its final concentration to 0.05 mM. The system is again incubated for 10 minutes, at 37° C. Hydrolysis of GDP is measured by its change in optical density with time at 275 nm. Inhibition of the enzyme is gauged by comparison to a standard run containing no inhibitor and is presented as percent inhibition.

[4] = Urinary recovery of thienamycin in the mouse with co-administered inhibitor; type: in vivo; details: urine
Method: In addition to this in vitro screen procedure, an in vivo sreen was followed to measure the test compound's ability to inhibit metabolism as reflected by increase in urinary recovery of thienamycin from the mouse. The procedure involves co-administration of the test compound by the intravenous or subcutaneous route at a dose-rate of 10-100 mg/kg, with 10 mg/kg thienamycin. Thienamycin recovery in the urine over a 4 hour period is then compared with its recovery in a control group to which test compound was not coadministered.
Urinary recovery of thienamycin was measured in all cases with the use of a cylinder or disc diffusion assay, conducted in a manner described in U.S. Pat. No. 3,950,357. This bioassay, with Staphylococcus aureus ATCC 6538 as the test organism, has a useful response range from 0.04 μg/ml to 3.0 μg/ml.
An in vivo assay on the mouse was conducted as follows: 20 g Charles River CD, female mice were injected subcutaneously with the chosen dose of the chemical inhibitor. About two minutes later, the dose of thienamycin was given intravenously. A control of thienamycin above was also conducted. The level of thienamycin in the urine as a % of dose was measured using a bioassay technique. The two test compound numbers are those from Table I. Compound 7 is Z-2-isovaleramido-2-butenoicacid; compound 10 is Z-2-cyclopropylcarboxamido-2-butenoic acid. […]

[5] = 10 mg/kg oral plus inhibitor (40 mg/kg SC + 40 mg/kg per os)
[6] = concentration producing 50% inhibition, substrate GDP 0.05 mM, pH 7.1, 37° C., read-out: Ki

| Compound | Ki [3, 6] [nM] | also measured |
| --- | --- | --- |
| CCSC1=C(C(=O)O)N2C(=O)[C@H]([C@@H](C)O)[C@H]2S1 (relative stereo) [Thienamycin Class Compound, (±)-[5R,6S]-2-ethylthio-6[(R)-1-hydroxyethyl]-pen-2-em-3-sodiocarboxylate] |  | concentration at 10 min [1, 5]: 2600 µg/mL; concentration at 10 min ([1]; compound alone, 10 mg/kg oral): 3100 µg/mL; concentration at 0.5 h [1, 5]: 4800 µg/mL; concentration at 0.5 h ([1]; compound alone, 10 mg/kg oral): 3700 µg/mL; concentration at 1 h [1, 5]: 6100 µg/mL; concentration at 1 h ([1]; compound alone, 10 mg/kg oral): 4400 µg/mL; concentration at […] [1, 5]: 3800 µg/mL; concentration at […] ([1]; compound alone, 10 mg/kg oral): 1800 µg/mL; dose excreted at 1 h [2, 5]: 1.5%; dose excreted at 1 h ([2]; compound alone, 10 mg/kg oral): 1.8%; dose excreted at 3 h [2, 5]: 2.3%; dose excreted at 3 h ([2]; compound alone, 10 mg/kg oral): 0.6%; dose excreted [2, 5]: 3.8%; dose excreted ([2]; compound alone, 10 mg/kg oral): 2.4% |
| C/C=C(\NC(=O)C1CC1C)C(=O)O (stereo not drawn) [Compound 3] | 1700 |  |
| CC/C=C(\NC(=O)CC(C)C)C(=O)O [Compound 4] | 3200 |  |
| C/C=C(\NC(=O)CC(C)CC(C)(C)C)C(=O)O (stereo not drawn) [Compound 5] | 4400 |  |
| C/C=C(\NC(=O)C1C(C)C1C)C(=O)O (stereo not drawn) [Compound 6] | 4600 |  |
| C/C=C(\NC(=O)C1CCC1)C(=O)O [Compound 8] | 6200 |  |
| C/C=C(\NC(=O)CC1CCC1)C(=O)O [Compound 9] | 6600 |  |
| C/C=C(\NC(=O)CC(C)CC)C(=O)O (stereo not drawn) [Compound 11] | 10000 |  |
| C[N+](C)(C)CCCCC/C=C(\NC(=O)C1CC1(Cl)Cl)C(=O)[O-] (stereo not drawn) [Compound 13] | 180 |  |
| CC1(C)CC1C(=O)N/C(=C\CCCCC[N+](C)(C)C)C(=O)[O-] (stereo not drawn) [Compound 14] | 1110 |  |
| CC(=N)NCCCCC/C=C(\NC(=O)C1CC1(C)C)C(=O)O (stereo not drawn) [Compound 15] | 720 |  |
| CC1(C)CC1C(=O)N/C(=C\CCCCSC[C@H](N)C(=O)O)C(=O)O (stereo partly drawn) [Compound 17] |  | Ki [3]: 210 nM |
| C/C=C(\NC(=O)CCCCCCC)C(=O)O [Compound 19, Z-2-octanamido-2-butenoic acid] | 26000 |  |
| C/C=C(\NC(=O)CCC)C(=O)O [Compound 20, Z-2-butyramido-2-butenoic acid] | 30000 |  |
| C/C=C(\NC(=O)CCCC1CCCCC1)C(=O)O [Compound 21] | 30000 |  |
| C/C=C(\NC(=O)CC1CC1)C(=O)O [Compound 22] | 22000 |  |
| C/C=C(\NC(=O)CCCC)C(=O)O [Compound 23, Z-2-valeramido-2-butenoic acid] | 32000 |  |
| C/C=C(\NC(=O)C1CCCC1)C(=O)O [Compound 24] | 30000 |  |
| O=C(O)CC/C=C(\NC(=O)C1CC1)C(=O)O [Compound 33] | 5000 |  |
| C/C=C(\NC(=O)CC(C)CCOC)C(=O)O (stereo not drawn) [Compound 34] | 9000 |  |
| C/C=C(\NC(=O)CCCCCBr)C(=O)O [Compound 35] | 19000 |  |
| C/C=C(\NC(=O)CCCc1ccccc1)C(=O)O [Compound 37] | 11000 |  |
| C/C=C(\NC(=O)C1CC1C(C)(C)C)C(=O)O (stereo not drawn) [Compound 38] | 6500 |  |
| CCCCC/C=C(\NC(=O)CC(C)C)C(=O)O [Compound 39, Z--isovaleramido-2-octenoic acid] | 2600 |  |

| Compound | Ki [3, 6] [nM] | also measured |
| --- | --- | --- |
| C/C=C(\NC(=O)C1CC1(C)CC)C(=O)O (stereo not drawn) [Compound 40] | 450 |  |
| CC(C)/C=C(\NC(=O)C1CC1(C)C)C(=O)O (stereo not drawn) [Compound 41] | 540 | inhibition at 100 µM ([3]; 10^-4 M inhibitor, 0.05 mM GDP, pH 7.1, 37° C.): 98% |
| C/C=C(\NC(=O)C1CC1(CC)CC)C(=O)O (stereo not drawn) [Compound 42] | 860 |  |
| C/C=C(\NC(=O)C1CC1CC)C(=O)O (stereo not drawn) [Compound 43] | 1600 |  |
| C/C=C(\NC(=O)C1CC1(C)C(C)C)C(=O)O (stereo not drawn) [Compound 44] | 3000 |  |
| CC/C=C(\NC(=O)C1CC1(C)C)C(=O)O (stereo not drawn) [Compound 45] | 180 |  |
| CC1(C)CC1C(=O)N/C(=C\c1ccccc1)C(=O)O (stereo not drawn) [Compound 46] | 620 |  |
| CCC/C=C(\NC(=O)C1CC1(C)C)C(=O)O (stereo not drawn) [Compound 47] | 110 |  |
| CC(C)C/C=C(\NC(=O)C1CC1(C)C)C(=O)O (stereo not drawn) [Compound 48] | 230 |  |
| CCCC/C=C(\NC(=O)C1CC1(C)C)C(=O)O (stereo not drawn) [Compound 49] | 110 |  |
| CCCCC/C=C(\NC(=O)C1CC1(C)C)C(=O)O (stereo not drawn) [Compound 50] | 170 |  |
| CC1(C)CC1C(=O)N/C(=C\CC1CCCCC1)C(=O)O (stereo not drawn) [Compound 52] | 150 |  |
| CC1(C)CC1C(=O)N/C(=C\CCc1ccccc1)C(=O)O (stereo not drawn) [Compound 53] | 330 |  |
| CSCC/C=C(\NC(=O)C1CC1(C)C)C(=O)O (stereo not drawn) [Compound 54] | 120 |  |
| CC1(C)CC1C(=O)N/C(=C\CCS(C)(=O)=O)C(=O)O (stereo not drawn) [Compound 55] | 500 |  |
| CCCCCCCCCC/C=C(\NC(=O)C1CC1(C)C)C(=O)O (stereo not drawn) [Compound 58] | 140 |  |
| COCCC/C=C(\NC(=O)C1CC1(C)C)C(=O)O (stereo not drawn) [Compound 60] | 280 |  |
| COCC/C=C(\NC(=O)C1CC1(C)C)C(=O)O (stereo not drawn) [Compound 61] | 320 |  |
| CC(C)(C)C/C=C(\NC(=O)C1CC1(C)C)C(=O)O (stereo not drawn) [Compound 62] | 340 |  |
| CC(C)CC/C=C(\NC(=O)C1CC1(C)C)C(=O)O (stereo not drawn) [Compound 63] | 150 |  |
| CCCCC/C=C(\NC(=O)[C@H]1CC1(C)C)C(=O)O [Compound 66] | 80 |  |
| CC(NCCCCC/C=C(\NC(=O)C1CC1(C)C)C(=O)O)P(=O)(O)O (stereo not drawn) [Example 18B] |  | Ki ([3]; Example 18B, unit inferred, read-out: Ki): 160 nM |
| C[C@@H](O)[C@H]1C(=O)N2C(C(=O)O)=C(SCCN)C[C@H]12 [Thienamycin] |  | dose excreted at 4 h ([4]; Table III, THM alone 10 mg/kg IV or SC, read-out: Urinary Recovery of THM, %): 30 ± 5%; dose excreted at 4 h ([4]; Table IV, THM alone 10 mg/kg SC, read-out: Urinary Recovery THM, %): 30 ± 5% |
| CCCCC/C=C(\NC(=O)[C@H]1CC1(C)C)C(=O)O [dextrorotatory isomer, Z-2-(2,2-dimethylcyclopropanecarboxamido)-2-octenoic acid] |  | activity of resolved isomers ([3]; resolved racemic Z-2-(2,2-dimethylcyclopropanecarboxamido)-2-octenoic acid): The activity resides in the dextrorotatory isomer |
